Data published in patent US20030124727A1, “Multivalent cationic lipids and methods of using same in the production of lipid particles” (priority 2001, published 2003).

What was measured:
[1] = Preparation of vesicles / bilayer structures on dispersion in aqueous medium; format: physicochemical; conditions: for preparation of vesicles from cationic lipid/DOPE mixtures: equimolar mixture with DOPE, hydration of lipid film and extrusion; for formation of bilayer structures on dispersion in an aqueous medium: in the presence and absence of DOPE
Description: To prepare large unilamellar vesicles (LUV), mixtures of cationic lipids and DOPE in chloroform were dried under a stream of nitrogen gas and the residual solvent removed under high vacuum for 2 hours. The resulting lipid films were hydrated with distilled water. LUVs were obtained by extruding the lipid dispersions 10 times through two stacked 100-nm pore size polycarbonate filters (Costar Nuclepore polycarbonate membrane, Lipex Biomembranes extruder) (15). Phospholipid concentrations were determined by the inorganic phosphorus assays according to Fiske and Subbarow (16).
(§1) DNA plasmid complexes containing TODMAC3 and TODMAC6 are usually formed by mixing plasmid DNA with preformed vesicles containing the cationic lipid mixed with equimolar amounts of the- “helper” lipid- dioleoyfphosphatidylethanolamine (DOPE) (17, 1-8). […] FIG. 3 illustrates the transfection properties of complexes prepared at cationic lipid-to-DNA charge ratios (positive to negative) ranging from 0.5 to 5.

[2] = 31P NMR polymorphic phase properties of cationic lipid/DPPS mixtures (bilayer-to-non-bilayer transition); format: physicochemical; conditions: for temperature at which the mixture adopts the H∥ phase / non-bilayer structure: mixture with DPPS equimolar with respect to charge, hydrated in distilled water; for 31P NMR lineshape (phase structure) at 25° C.: mixture with DPPS
Text: As noted above, the ability of cationic lipids to induce the hexagonal H∥ phase in combination with anionic lipids correlates well with their transfection properties in plasmid DNA-cationic lipid complexes. The relative ability of cationic lipids to induce the H∥ phase can be ascertained by measuring the bilayer-to-non-bilayer transition temperature (Tc) of the cationic lipid in equimolar mixtures (with respect to charge) with an anionic phospholipid such as 1,2-dipalmitoyl-sn-glycero-3-[phospho-L-serine] (DPPS). The bilayer-to-non-bilayer transition can be conveniently monitored employing ^31P NMR techniques (12).
To evaluate the polymorphic phase properties of mixtures of TODMAC3 and TODMAC6 with DPPS, lipid mixtures containing 40-50 mg DPPS and appropriate molar ratios of cationic lipids N,N-dioleyl-N-N-dimethylammonium chloride (DODAC), TODMAC3, and TODMAC6 were prepared by drying from chloroform solution, placed in 10 mm NMR tubes and hydrated with 1.5 mL distilled water. Free induction decays (FIDs) corresponding to 1000 scans were obtained by using a […] 60° pulse with a […] interpulse delay and a spectral width of 25,000 Hz. A gated two-level proton decoupling was used to ensure sufficient decoupling with minimum sample heating. An exponential multiplication corresponding to 50 Hz of line broadening was applied to the FIDs prior to Fourier transformation. The sample temperature (±1° C.) was regulated using a Bruker B-VT1000 variable temperature unit. Chemical shifts were referenced to 85% phosphoric acid as an external standard.

[3] = system: BHK cells; experiment: In vitro transfection of BHK cells with plasmid DNA-cationic lipid complexes (luciferase expression); format: cell-based, hamster; conditions: for transfection potency relative to complexes containing DODAC: cationic lipid/DOPE vesicles, LO18 luciferase plasmid, FIG. 3; for transfection properties compared among DODAC, TODMAC6 and TODMAC3: complexes formed from ethanol solution, no DOPE, FIG. 4
Description: Lipoplexes were prepared in distilled water at pDNA concentrations ranging from 12.5-25 μg pDNA/ml at positive-to-negative charge ratios between 0.5-5. Plasmid DNA was added under vortexing to cationic LUVs (cationic lipid/DOPE 1:1). In the absence of the helper lipid DOPE, lipoplexes were prepared by addition of the cationic lipids from ethanol solutions to an aqueous solution containing the pDNA. The amount of ethanol in these formulations was between 0.4-2.3%. The lipoplexes were incubated at room temperature for 30 min, diluted to a final concentration of 2.5 μg pDNA/ml with serum-free media (Dulbecco's Modified Eaglels Medium, DMEM) and subsequently applied to BHK cells.
BHK cells, grown in DMEM supplemented with 10% fetal calf serum (FCS), 100 U/ml of penicillin and 100 μg/ml of streptomycin, were seeded in 96-well plates at a density of 1×10^4 cells per well 24 h before transfection. The next day media was removed and replaced with 100 μl of lipoplexes dispersed in serum-free DMEM (0.25 μg pDNA/100 μl), After 4 hr, lipoplexes were replaced with serum-containing DMEM and cells further incubated for 20 h. After that, the culture medium was aspirated, the cells washed twice with 100 μl of PSS and then lysed through addition of 50 μl of lysis buffer (1% Triton X-100 in PBS). Luciferase activity was measured with a Dynex Luminometer (Dynex model ML3000) using the Luciferase Assay Kit from Promega. The total protein concentration per well was determined using the BCA assay from Pierce. Means and standard deviations were calculated from three independent experiments.
as §1
In order to test the relative transfection potencies of DODAC, TODMAC6 and TODMAC3 a different procedure was used to associate the cationic lipid with the plasmid to form the complexes. In this method the cationic lipid dissolved in ethanol was introduced into an aqueous solution of the plasmid and DOPE was not present. […] Specifically, for charge ratios −2.5, TODMAC6 complexes gave rise to luciferase expression levels 5-20 fold higher than could be achieved with DODAC or TODMAC3.

Row | preparation of vesicles from cationic lipid/DOPE mixtures [1] | formation of bilayer structures on dispersion in an aqueous medium [1] | temperature at which the mixture adopts the H∥ phase / non-bilayer structure ([2]; 31P NMR) [°C] | 31P NMR lineshape (phase structure) at 25° C. [2] | temperature at which an H∥ component is visible (limited subset of the DPPS; bulk remains bilayer) ([2]; TODMAC3/DPPS 0.5:1 mol:mol (equimolar in charge), 31P NMR) [°C] | temperature of apparently complete H∥ organization ([2]; TODMAC3/DPPS ratio 2:1 on a charge basis) [°C] | SMILES | transfection potency relative to complexes containing DODAC ([3]; charge ratios higher than two (up to 5)) | transfection potency relative to complexes containing DODAC ([3]; charge ratios of two or lower) | transfection properties compared among DODAC, TODMAC6 and TODMAC3 ([3]; charge ratios above two) | luciferase expression levels higher than could be achieved with DODAC or TODMAC3 ([3]; complexes without DOPE, charge ratios −2.5) | transfection properties compared among DODAC, TODMAC6 and TODMAC3 ([3]; charge ratios of two and lower) | phase properties of equimolar mixture with DPPS ([2]; equimolar (mol) proportions of TODMAC3 and DPPS, compared with 0.5:1)
1 | could be readily prepared | readily forms bilayer structures | ~30 | bilayer structure | – | – | CCCCCCCC/C=C\CCCCCCCC[N+](C)(CCCCCCCC/C=C\CCCCCCCC)CCCCCC[N+](C)(CCCCCCCC/C=C\CCCCCCCC)CCCCCCCC/C=C\CCCCCCCC.[Cl-].[Cl-] [TODMAC6, N,N,N′,N′-Tetraoleyl-N,N′-dimethyl-1,6-hexanediammonium chloride] | greater | comparable to or slightly lower | superior to both DODAC and TODMAC3 | 5-20 fold | – | –
2 | – | – | > 35 | bilayer structure | – | – | CCCCCCCC/C=C\CCCCCCCC[N+](C)(C)CCCCCCCC/C=C\CCCCCCCC.[Cl-] [DODAC, N,N-dioleyl-N-N-dimethylammonium chloride, reference compound] | – | – | – | – | superior | –
3 | could not be prepared | does not | – | – | ≤ 15 | ≥ 25 | CCCCCCCC/C=C\CCCCCCCC[N+](C)(CCCCCCCC/C=C\CCCCCCCC)CCC[N+](C)(CCCCCCCC/C=C\CCCCCCCC)CCCCCCCC/C=C\CCCCCCCC.[Cl-].[Cl-] [TODMAC3, N,N,N1,N1-Tetraoleyl.N,N′-dimethyl-1,3-propanediammonium Chloride] | – | – | – | – | – | increased preference for H∥ phase structure
